Measurements reported in patent US20190169218A1, “AMPHIPATHIC COMPOUND HAVING NOVEL PENTA-SACCHARIDE HYDROPHILIC GROUP AND USE THEREOF” (Industry-University Cooperation Foundation Hanyang …, priority 2016, published 2019).

What was measured:
[1] = hydrodynamic radius of micelles by dynamic light scattering (DLS); format: physicochemical; settings: compound at 1.0 wt %
Method in brief: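 Micelle hydrodynamic radius (Rh) was measured by dynamic light scattering with each amphiphile at 1.0 wt %.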

[2] = system: leucine transporter (LeuT); experiment: LeuT stability, [3H]-Leu binding by scintillation proximity assay (SPA); format: biochemical, Aquifex aeolicus; settings: room temperature
Protocol: The ability of PSAs, PSEs or TPSs (TPS-A/E/ELs) to stabilize leucine transporter (LeuT), a membrane protein, was measured. LeuT purified by DDM was mixed with a solution containing each amphipathic compound, and the mixture was incubated at room temperature for 12 days. The activity of LeuT proteins was measured by scintillation proximity assay (SPA) using a ligand ([^3H]-Leu), and the concentration of PSAs, PSEs, TPSs or DDM was (a) CMC+0.04 wt %, or (b) CMC+0.2 wt %.
Specifically, LeuT stability measurement was performed in the following manner. According to the results of Example 6, PSA-C10, PSA-C11, PSE-C9, PSE-C11, and PSE-C13 were selected as the amphipathic compounds of PSAs and PSEs except for PSA-C9, and wild type leucine transporter (LeuT) was purified from Aquifex aeolicus using TPS-As, TPS-Es and TPS-EL, according to the method described in G. Deckert et al. (Nature 1998, 392, 353-358.). E. coli C41 (DE3) was transformed with a pET16b plasmid containing a gene construct encoding C-terminal 8×His-tagged LeuT, and thus LeuT was expressed in the form of a fusion protein having 8×His tags at the C-terminus in the transformed E. coli C41 (the expression plasmid was provided by Dr. E. Gouaux, Vollum Institute, Portland, Oreg., USA). Briefly, bacterial membranes containing LeuT were treated with 1.0 wt % DDM, and proteins were bound to Ni^2+-NTA resin (Life Technologies, Denmark). LeuT bound to the resin was eluted using a buffer solution containing 20 mM Tris-HCl (pH 8.0), 1 mM NaCl, 199 mM KCl, 0.05% DDM and 300 mM imidazole. Next, about 1.5 mg/mL of protein stock was diluted 10-fold in an equivalent buffer supplemented with TPS-As, TPS-Es, TPS-ELs, PSAs/PSEs (PSA-C10, PSA-C11, PSE-C9, PSE-C11 and PSE-C13) or DDM (control group) to a final concentration of CMC+0.04 wt % or CMC+0.2 wt % without DDM and imidazole. The protein samples were stored at room temperature and centrifuged at designated times. Protein activity was determined by measuring the degree of binding to [^3H]-Leu using scintillation proximity assay (SPA) (M. Quick et al., Proc. Natl, Acad. Sci. U.S.A. 2007, 104, 3603-3608.). Briefly, SPA was performed with 5 μL of each protein sample dissolved in a buffer containing 450 mM NaCl and each test compound. The SPA reaction was performed in the presence of 20 nM [^3H]-Leu and copper chelate (His-Tag) YSi beads (both were purchased from PerkinElmer, Denmark). The degree of binding to [^3H]-Leu was measured using a MicroBeta liquid scintillation counter (PerkinElmer).

[3] = target: T1, Salmonella typhimurium melibiose permease (MelB) (Salmonella typhimurium, UniProt P30878); experiment: MelB extraction efficiency and thermal stability by SDS-PAGE and western immunoblotting; settings: 1.5 wt %; for MelB extraction efficiency: 0° C., 90 minutes (similar results at 45° C.); for solubilized MelB remaining in solution: 90 minutes
T1 construct: made in house; host or cells: DW2 cells (melB and lacZY), Salmonella typhimurium DW2; plasmid pK95AHB/WT MelBst/CH10
T1 sequence (P30878 whole entry): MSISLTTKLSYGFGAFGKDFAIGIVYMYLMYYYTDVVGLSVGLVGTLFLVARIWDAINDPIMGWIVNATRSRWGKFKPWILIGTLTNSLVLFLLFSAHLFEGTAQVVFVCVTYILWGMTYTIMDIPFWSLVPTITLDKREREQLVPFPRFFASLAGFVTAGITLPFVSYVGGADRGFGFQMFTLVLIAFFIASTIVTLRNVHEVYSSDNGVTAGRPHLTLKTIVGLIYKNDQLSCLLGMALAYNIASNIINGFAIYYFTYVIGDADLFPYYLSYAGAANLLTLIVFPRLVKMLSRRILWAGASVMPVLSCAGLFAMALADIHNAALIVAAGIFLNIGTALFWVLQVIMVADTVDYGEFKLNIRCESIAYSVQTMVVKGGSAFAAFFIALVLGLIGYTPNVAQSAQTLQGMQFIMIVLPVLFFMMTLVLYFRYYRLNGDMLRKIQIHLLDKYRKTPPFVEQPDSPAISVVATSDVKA
Protocol: The ability of PSAs or PSEs to extract (solubilize) MelBst (Salmonella typhimurium melibiose permease) proteins and stabilize the structures thereof was measured. MelB proteins were extracted using PSAs, PSEs or DDM, and the amount of the extracted proteins and structural stability thereof were quantitatively analyzed by SDS-PAGE and western immunoblotting. The protein extraction efficiency and thermally stabilizing ability of the amphipathic compounds were simultaneously evaluated by extracting MelB proteins at four temperatures (0, 45, 55 or 65° C.) for 90 minutes using the amphipathic compounds at a concentration of 1.5 wt %.
Specifically, according to the method described in the journal article (P. S. Chae, et al., Chemistry. 2013, 19, 15645-15651.) published by the present inventors, proteins (MelBst) were produced using a plasmid pK95AHB/WT MelBst/CH10 containing a gene construct encoding wild-type MelB having 10×His tags at the C-terminus and Salmonella typhimurium DW2 cells (melB and lacZY). According to the method described in the journal article (A. S. Ethayathulla et al., Nat. Commun. 2014, 5, 3009), cells were cultured and the cell membranes were obtained from the cultured cells. Protein analysis was performed using a Micro BCA kit (Thermo Scientific, Rockford, Ill.). To measure solubilization/stability, membrane samples (the final concentration of membrane proteins was 10 mg/mL) containing MelBst were mixed with a solubilization buffer solution (20 mM sodium phosphate, pH 7.5, 200 mM NaCl, 10% glycerol and 20 mM melibiose) containing DDM, PSAs (PSA-C11) or PSEs (PSE-C9, PSE-C11, PSE-C13) at a concentration of 1.5% (w/v). Extracts were incubated at four different temperatures (0, 45, 55 and 65° C.) for 90 minutes. Fractions were removed by ultracentrifugation at 355,590 g for 45 minutes using a Beckman Optima™ MAX ultracentrifuge equipped with a No. 4 TLA-100 rotor. 20 μg of proteins was separated using a 15% SDS-PAGE gel. Next, immunoblotting was performed using Penta-His-HRP antibodies (Qiagen, Germantown, Md.). After performing SDS-PAGE and immunoblotting, the amount of solubilized MelB was quantitated and expressed as a percentage of the amount of MelB measured in the control group.

SMILES | Rh (nm), hydrodynamic radius of micelles [1] [nm] | maintenance of LeuT activity during 12 days of incubation ([2]; CMC+0.04 wt %) | maintenance of LeuT activity during 12 days of incubation ([2]; CMC+0.2 wt %) | LeuT transporter activity retained after 12 days of incubation ([2]; CMC+0.2 wt %, 12 days) [%] | MelB extraction efficiency [3] | solubilized MelB remaining in solution ([3]; 55° C.) | solubilized MelB remaining in solution ([3]; 65° C.)
CCCCCCCCCCCOCC(COCCCCCCCCCCC)O[C@@H]1OC(CO[C@@H]2OC(CO)[C@@H](O)C(O)C2O)[C@@H](O[C@@H]2OC(CO)[C@@H](O)C(O)C2O)C(O[C@@H]2OC(CO)[C@@H](O)C(O)C2O)C1O[C@@H]1OC(CO)[C@@H](O)C(O)C1O (stereo partly drawn) [PSE-C11] | 3.46 ± 0.05 | did not show any appreciable decrease in protein activity | completely preserved | 100 | extracted at an efficiency similar to the efficiency observed in the case of DDM | remained dissolved in the solution | a small amount of dissolved MelB was observed
CCCCCCCCCCCC(CCCCCCCCCCC)CO[C@@H]1OC(CO[C@@H]2OC(CO)[C@@H](O)C(O)C2O)[C@@H](O[C@@H]2OC(CO)[C@@H](O)C(O)C2O)C(O[C@@H]2OC(CO)[C@@H](O)C(O)C2O)C1O[C@@H]1OC(CO)[C@@H](O)C(O)C1O (stereo partly drawn) [PSA-C11] | 3.28 ± 0.03 | – | – | – | extracted at an efficiency similar to the efficiency observed in the case of DDM | remained dissolved in the solution | –
CCCCCCCCCCCCCOCC(COCCCCCCCCCCCCC)O[C@@H]1OC(CO[C@@H]2OC(CO)[C@@H](O)C(O)C2O)[C@@H](O[C@@H]2OC(CO)[C@@H](O)C(O)C2O)C(O[C@@H]2OC(CO)[C@@H](O)C(O)C2O)C1O[C@@H]1OC(CO)[C@@H](O)C(O)C1O (stereo partly drawn) [PSE-C13] | 14.1 ± 0.24 | did not show any appreciable decrease in protein activity | – | – | – | remained dissolved in the solution | –
CCCCCCCCOCC(COCCCCCCCC)(COCCCCCCCC)CO[C@@H]1OC(CO[C@@H]2OC(CO)[C@@H](O)C(O)C2O)[C@@H](O[C@@H]2OC(CO)[C@@H](O)C(O)C2O)C(O[C@@H]2OC(CO)[C@@H](O)C(O)C2O)C1O[C@@H]1OC(CO)[C@@H](O)C(O)C1O (stereo partly drawn) [TPS-E8] | 43.8 ± 16.3 | remained intact | completely preserved | – | – | – | –
CCCCCCCCCCCCO[C@@H]1O[C@H](CO)[C@@H](O[C@H]2O[C@H](CO)[C@@H](O)[C@H](O)[C@H]2O)[C@H](O)[C@H]1O [DDM, n-dodecyl-β-D-maltopyranoside, reference compound] | 3.4 ± 0.03 | – | – | – | – | disappeared in the solution | –
